Values quoted from earlier work, collected in patent US12274713B2, “Nutraceutical composition comprising a water-soluble fullerene and a ketone” (priority 2021, dated 2025).

Test system: tumor growth and metastasis
Details: Prylutska et al.

Compound: c12c3c4c5c1c1c6c7c2c2c8c3c3c9c4c4c%10c5c5c1c1c6c6c%11c7c2c2c7c8c3c3c8c9c4c4c9c%10c5c5c1c1c6c6c%11c2c2c7c3c3c8c4c4c9c5c1c1c6c2c3c41 [60-carbon fullerene, Buckminsterfullerene]
- tumor growth and metastasis: inhibit tumor growth and metastasis
